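Step 1: Grow cells in 96-well plates. Step 2: Expose to compound for 48 hours at 5 concentrations. Step 3: Interpolate endpoints linearly; if unreached, use highest concentration. GI50 = concentration required for 50% inhibition of growth.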 Calls of active or inactive are those of the source. Cut-off read from the data, not from the text of the source: active = GI50 up to about 1.1 µM and inactive = higher.
Key:
Test in all cases: NCI-60 cell line screen, 48 h
SN12C = tested on: SN12C
SK-MEL-2 = tested on: SK-MEL-2
HOP-92 = tested on: HOP-92
SK-MEL-28 = tested on: SK-MEL-28
KM12 = tested on: KM12
MDA-N = tested on: MDA-N
OVCAR-8 = tested on: OVCAR-8
CAKI-1 = tested on: CAKI-1
HCC 2998 = tested on: HCC 2998
HCT-116 = tested on: HCT-116
MCF7 = tested on: MCF7
LOX IMVI = tested on: LOX IMVI
M14 = tested on: M14
Hs-578T = tested on: Hs-578T
SF-268 = tested on: SF-268
HCT-15 = tested on: HCT-15
UACC-257 = tested on: UACC-257
UACC-62 = tested on: UACC-62
A498 = tested on: A498
RXF 393 = tested on: RXF 393

Row | SMILES | GI50 (SN12C) | GI50 (SK-MEL-2) | GI50 (HOP-92) | GI50 (SK-MEL-28) | GI50 (KM12) | GI50 (MDA-N) | GI50 (OVCAR-8) | GI50 (CAKI-1) | GI50 (HCC 2998) | GI50 (HCT-116) | GI50 (MCF7) | GI50 (LOX IMVI) | GI50 (M14) | GI50 (Hs-578T) | GI50 (SF-268) | GI50 (HCT-15) | GI50 (UACC-257) | GI50 (UACC-62) | GI50 (A498) | GI50 (RXF 393)
1 | O=C1OC(C(O)CO)C(O)=C1O (stereo not drawn) | > 100 µM (inactive) | > 100 µM (inactive) | > 100 µM (inactive) | > 100 µM (inactive) | > 100 µM (inactive) | > 100 µM (inactive) | > 100 µM (inactive) | > 100 µM (inactive) | > 100 µM (inactive) | > 100 µM (inactive) | > 100 µM (inactive) | > 100 µM (inactive) | > 100 µM (inactive) | > 100 µM (inactive) | > 100 µM (inactive) | > 100 µM | > 100 µM (inactive) | – | – | –
2 | COc1ccc2cc1Oc1ccc(cc1)CC1c3c(cc(OC)c4c3Oc3cc5c(cc3O4)CCNC5C2)CCN1C (stereo not drawn) | 1.91 µM (inactive) | 1.84 µM (inactive) | 2.45 µM (inactive) | 1.88 µM (inactive) | 1.85 µM (inactive) | 1.83 µM (inactive) | 1.77 µM (inactive) | 2.87 µM (inactive) | 1.2 µM (inactive) | – | 1.85 µM (inactive) | 1.69 µM (inactive) | 2.58 µM (inactive) | 2.19 µM (inactive) | 1.95 µM (inactive) | 1.77 µM | 1.67 µM (inactive) | 1.82 µM (inactive) | 2.1 µM (inactive) | –
3 | Cn1c(-c2ccccc2)c2cc3nc4ccccc4nc3cc2c1-c1ccccc1 | 13.3 µM (inactive) | 17.7 µM (inactive) | 25.3 µM (inactive) | 34.9 µM (inactive) | 11.6 µM (inactive) | 5.87 µM (inactive) | 22.1 µM (inactive) | 43.3 µM (inactive) | – | 23.2 µM (inactive) | 12.1 µM (inactive) | 14 µM (inactive) | 6.21 µM (inactive) | 10.6 µM (inactive) | 19 µM (inactive) | 4.65 µM | 56.2 µM (inactive) | 11.7 µM (inactive) | 19.6 µM (inactive) | 22.3 µM (inactive)
4 | CCOP(=O)(OCC)/C(C#N)=C/c1cn(C)cn1 | > 100 µM (inactive) | > 100 µM (inactive) | > 100 µM (inactive) | > 100 µM (inactive) | > 100 µM (inactive) | > 100 µM (inactive) | > 100 µM (inactive) | > 100 µM (inactive) | > 100 µM (inactive) | – | > 100 µM (inactive) | – | > 100 µM (inactive) | – | > 100 µM (inactive) | > 100 µM | > 100 µM (inactive) | > 100 µM (inactive) | > 100 µM (inactive) | > 100 µM (inactive)
5 | O=C(NC(Cc1ccc(Br)cc1)C(=O)O)c1ccc(I)cc1 (stereo not drawn) | > 100 µM (inactive) | > 100 µM (inactive) | 65.3 µM (inactive) | > 100 µM (inactive) | > 100 µM (inactive) | – | > 100 µM (inactive) | > 100 µM (inactive) | > 47.4 µM (inactive) | > 100 µM (inactive) | > 100 µM (inactive) | > 100 µM (inactive) | – | – | > 100 µM (inactive) | > 100 µM | > 100 µM (inactive) | 71.9 µM (inactive) | > 100 µM (inactive) | > 100 µM (inactive)

Source: ChEMBL document CHEMBL1201862, “PubChem BioAssay data set” (2004)
